Experimental data published in patent US20090281099A1, “SUBSTITUTED PYRAZINONE DERIVATIVES FOR USE AS A MEDICINE” (priority 2006, published 2009).
Read-outs that look alike come from different tables or passages of the source.

Key:
hα2A receptor = target: T1, hα2A receptor (Homo sapiens, UniProt P08913); assay: Radioligand binding experiment for hα2A receptor ([3H]-raulwolscine, CHO cell membranes); settings: read-out: h-α2A pIC50 (converted)
T1 construct: expressed in transfected cells
T1 sequence (P08913 1-465): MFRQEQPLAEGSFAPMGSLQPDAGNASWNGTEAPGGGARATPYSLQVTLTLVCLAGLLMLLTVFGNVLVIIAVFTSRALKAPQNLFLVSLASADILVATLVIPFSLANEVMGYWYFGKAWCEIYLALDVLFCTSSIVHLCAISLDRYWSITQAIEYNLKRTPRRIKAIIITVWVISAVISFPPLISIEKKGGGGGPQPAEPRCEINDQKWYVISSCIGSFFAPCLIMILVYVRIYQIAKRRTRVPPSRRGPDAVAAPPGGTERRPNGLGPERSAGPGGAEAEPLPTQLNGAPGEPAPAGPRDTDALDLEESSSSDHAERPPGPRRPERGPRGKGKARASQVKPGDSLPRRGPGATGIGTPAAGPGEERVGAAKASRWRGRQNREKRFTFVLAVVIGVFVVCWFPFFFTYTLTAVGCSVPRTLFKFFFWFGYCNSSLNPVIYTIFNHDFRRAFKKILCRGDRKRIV

hα2C receptor = target: T2, hα2C receptor (Homo sapiens, UniProt P18825); assay: Radioligand binding experiment for α2C-adrenoceptor ([3H]-raulwolscine, CHO cell membranes); settings: read-out: h-α2C pIC50 (converted)
T2 construct: expressed in transfected cells
T2 sequence (P18825 1-462): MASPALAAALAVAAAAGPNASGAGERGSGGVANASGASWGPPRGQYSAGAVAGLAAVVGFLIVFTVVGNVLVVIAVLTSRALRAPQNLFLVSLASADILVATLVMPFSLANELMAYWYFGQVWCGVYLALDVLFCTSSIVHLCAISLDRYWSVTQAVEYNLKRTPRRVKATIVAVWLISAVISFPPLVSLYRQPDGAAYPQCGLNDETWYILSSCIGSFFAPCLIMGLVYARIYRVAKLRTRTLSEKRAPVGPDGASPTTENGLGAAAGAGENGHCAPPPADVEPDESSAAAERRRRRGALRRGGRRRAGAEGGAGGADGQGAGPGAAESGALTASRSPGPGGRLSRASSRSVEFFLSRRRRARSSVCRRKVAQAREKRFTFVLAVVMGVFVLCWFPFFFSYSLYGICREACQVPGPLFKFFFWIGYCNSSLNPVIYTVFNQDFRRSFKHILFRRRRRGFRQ

5HT-Transporter = target: T3, 5HT-Transporter (Homo sapiens, UniProt P31645); assay: Binding experiment for the 5HT-transporter ([3H]paroxetine, human platelet membranes); settings: [3H]paroxetine 0.5 nM, read-out: h-5HTT pIC50 (converted)
T3 construct: Human platelet membranes (Oceanix Biosciences Corporation, Hanover, Md., USA) were thawed; tissue Oceanix Biosciences Corporation; host or cells: human platelet membranes
T3 sequence (P31645 whole entry): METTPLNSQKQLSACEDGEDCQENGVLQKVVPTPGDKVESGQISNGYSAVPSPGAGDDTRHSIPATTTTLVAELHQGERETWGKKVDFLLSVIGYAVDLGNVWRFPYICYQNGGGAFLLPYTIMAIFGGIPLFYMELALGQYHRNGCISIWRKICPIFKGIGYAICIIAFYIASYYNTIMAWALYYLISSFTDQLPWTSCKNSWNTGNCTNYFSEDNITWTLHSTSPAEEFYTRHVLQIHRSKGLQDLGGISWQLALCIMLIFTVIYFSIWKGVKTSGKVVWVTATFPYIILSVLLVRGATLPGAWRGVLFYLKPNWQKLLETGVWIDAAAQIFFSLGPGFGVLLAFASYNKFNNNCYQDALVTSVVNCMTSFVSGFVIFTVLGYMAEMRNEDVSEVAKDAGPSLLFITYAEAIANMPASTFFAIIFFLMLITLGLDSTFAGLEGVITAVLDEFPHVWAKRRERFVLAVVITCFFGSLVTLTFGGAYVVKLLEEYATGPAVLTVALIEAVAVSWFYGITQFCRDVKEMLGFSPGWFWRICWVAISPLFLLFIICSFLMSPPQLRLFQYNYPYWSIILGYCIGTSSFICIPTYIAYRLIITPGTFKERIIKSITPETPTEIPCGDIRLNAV

[1] = [3H]raulwolscine 1 nM, membranes of CHO cells transfected with human α2A receptor
[2] = [3H]raulwolscine 1 nM, membranes of CHO cells transfected with human α2C receptor

Q: How did the IC50 (hα2A receptor; [1]) turn out when `CC(C)(C)C(=O)Cn1ccnc(N2CCN(CCOc3ccc(F)cc3)CC2)c1=O` [Compound 13-4] was run?
A: 316 nM

Q: What about the IC50 (hα2C receptor; [2]) of the same molecule?
A: 200 nM

Q: What about the IC50 (5HT-Transporter) of the same molecule?
A: > 10000 nM

Q: `CN(C)C(=O)Cn1ccnc(N2CCN(CCOc3ccc(F)cc3)CC2)c1=O` [Compound 7-2] was tested. Which IC50 (hα2A receptor; [1]) did it give?
A: 316 nM

Q: And the IC50 (hα2C receptor; [2])?
A: 501 nM

Q: What about the IC50 (5HT-Transporter) of the same molecule?
A: > 10000 nM

Q: How did the IC50 (hα2A receptor; [1]) turn out when `CC(C)(C)OC(=O)NCc1ccc(Cn2ccnc(N3CCN(CCOc4ccc(F)cc4)CC3)c2=O)cc1` [Compound 7-3] was run?
A: 398 nM

Q: And the IC50 (hα2C receptor; [2])?
A: 251 nM

Q: And the IC50 (5HT-Transporter)?
A: 2000 nM

Q: With `CN(C(=O)Cn1ccnc(NC2CCN(CCOc3ccccc3)CC2)c1=O)C1CCCCC1` [Compound 1-6] as the molecule, how does the IC50 (hα2A receptor; [1]) read?
A: 126 nM

Q: What about the IC50 (hα2C receptor; [2]) of the same molecule?
A: 2 nM

Q: What about the IC50 (5HT-Transporter) of the same molecule?
A: 7940 nM

Q: Which results are given for `O=c1c(N2CCN(CCOc3ccc(F)cc3)CC2)nccn1CCN1CCCCC1` [Compound 8-1]?
A: IC50 (hα2A receptor; [1]): 631 nM; IC50 (hα2C receptor; [2]): 100 nM; IC50 (5HT-Transporter): 7940 nM

Q: Which results are given for `O=c1c(NC2CCN(CCOc3ccccc3)CC2)nccn1-c1cccc(NCc2ccccc2)c1` [Compound 1-12]?
A: IC50 (hα2A receptor; [1]): 50.1 nM; IC50 (hα2C receptor; [2]): 3.98 nM; IC50 (5HT-Transporter): 2510 nM

Q: With `O=c1c(N2CCN(CCOc3ccc(F)cc3)CC2)nccn1Cc1ccco1` [Compound 12-1] as the molecule, how does the IC50 (hα2A receptor; [1]) read?
A: 200 nM

Q: What about the IC50 (hα2C receptor; [2]) of the same molecule?
A: 251 nM

Q: What about the IC50 (5HT-Transporter) of the same molecule?
A: > 10000 nM

Q: `COC(=O)Cn1ccnc(NC2CCN(CCOc3ccccc3)CC2)c1=O` [Compound 3-2] was tested. Which IC50 (hα2A receptor; [1]) did it give?
A: 158 nM

Q: And the IC50 (hα2C receptor; [2])?
A: 25.1 nM

Q: And the IC50 (5HT-Transporter)?
A: > 10000 nM

Q: How did the IC50 (hα2A receptor; [1]) turn out when `O=C(Cn1ccnc(NC2CCN(CCOc3ccccc3)CC2)c1=O)N1CCCCC1` [Compound 2-3] was run?
A: 251 nM

Q: And the IC50 (hα2C receptor; [2])?
A: 7.94 nM

Q: What about the IC50 (5HT-Transporter) of the same molecule?
A: > 10000 nM

Q: What does the source list for `CCCCN(Cc1ccccc1)C(=O)Cn1ccnc(NC2CCN(CCOc3ccccc3)CC2)c1=O` [Compound 1-18]?
A: IC50 (hα2A receptor; [1]): 126 nM; IC50 (hα2C receptor; [2]): 6.31 nM; IC50 (5HT-Transporter): > 10000 nM

Q: With `O=c1c(NC2CCN(CCOc3ccccc3)CC2)nccn1-c1ccc(N2CCCCC2)cc1` [Compound 2-4] as the molecule, how does the IC50 (hα2A receptor; [1]) read?
A: 200 nM

Q: And the IC50 (hα2C receptor; [2])?
A: 20 nM

Q: And the IC50 (5HT-Transporter)?
A: 2510 nM

Q: How did the IC50 (hα2A receptor; [1]) turn out when `O=c1c(NC2CCN(CCOc3ccccc3)CC2)nccn1Cc1cccc(Br)c1` [Compound 4-2] was run?
A: 158 nM

Q: And the IC50 (hα2C receptor; [2])?
A: 15.8 nM

Q: And the IC50 (5HT-Transporter)?
A: 1580 nM

Q: With `COc1ccc(-c2nnc(Cn3ccnc(N4CCN(CCOc5ccc(F)cc5)CC4)c3=O)o2)cc1` [Compound 12-4] as the molecule, how does the IC50 (hα2A receptor; [1]) read?
A: 158 nM

Q: And the IC50 (hα2C receptor; [2])?
A: 158 nM

Q: And the IC50 (5HT-Transporter)?
A: 794 nM

Q: `O=C(Cn1ccnc(N2CCN(CCOc3ccc(F)cc3)CC2)c1=O)c1ccccc1` [Compound 11-5] was tested. Which IC50 (hα2A receptor; [1]) did it give?
A: 158 nM

Q: And the IC50 (hα2C receptor; [2])?
A: 158 nM

Q: What about the IC50 (5HT-Transporter) of the same molecule?
A: 3980 nM

Q: How did the IC50 (hα2A receptor; [1]) turn out when `CCCn1ccnc(NC2CCN(CCOc3ccccc3)CC2)c1=O` [Compound 5-2] was run?
A: 100 nM

Q: And the IC50 (hα2C receptor; [2])?
A: 15.8 nM

Q: What about the IC50 (5HT-Transporter) of the same molecule?
A: > 10000 nM

Q: With `O=c1c(N2CCN(CCOc3ccc(F)cc3)CC2)nccn1Cc1ccc(Cl)s1` [Compound 12-2] as the molecule, how does the IC50 (hα2A receptor; [1]) read?
A: 200 nM

Q: What about the IC50 (hα2C receptor; [2]) of the same molecule?
A: 79.4 nM

Q: And the IC50 (5HT-Transporter)?
A: 6310 nM

Q: For `CN(C)C(=O)Cn1ccnc(NC2CCN(CCOc3ccccc3)CC2)c1=O` [Compound 1-5], which IC50 (hα2A receptor; [1]) is on record?
A: 501 nM

Q: What about the IC50 (hα2C receptor; [2]) of the same molecule?
A: 39.8 nM

Q: And the IC50 (5HT-Transporter)?
A: > 10000 nM

Q: With `O=c1c(NC2CCN(CCOc3ccccc3)CC2)nccn1CC1CCCCC1` [Compound 5-3] as the molecule, how does the IC50 (hα2A receptor; [1]) read?
A: 251 nM

Q: What about the IC50 (hα2C receptor; [2]) of the same molecule?
A: 25.1 nM

Q: What about the IC50 (5HT-Transporter) of the same molecule?
A: 1000 nM

Q: How did the IC50 (hα2A receptor; [1]) turn out when `O=C1c2ccccc2C(=O)N1CCCn1ccnc(N2CCN(CCOc3ccc(F)cc3)CC2)c1=O` [Compound 8-2] was run?
A: 100 nM

Q: What about the IC50 (hα2C receptor; [2]) of the same molecule?
A: 39.8 nM

Q: And the IC50 (5HT-Transporter)?
A: 631 nM

Q: With `O=C(Cn1ccnc(NC2CCN(CCOc3ccccc3)CC2)c1=O)N1CCC(C(F)(F)F)CC1` [Compound 2-6] as the molecule, how does the IC50 (hα2A receptor; [1]) read?
A: 100 nM

Q: What about the IC50 (hα2C receptor; [2]) of the same molecule?
A: 3.98 nM

Q: And the IC50 (5HT-Transporter)?
A: > 10000 nM

Q: Which IC50 (hα2A receptor; [1]) does the source give for `CN(Cc1ccccc1)C(=O)Cn1ccnc(NC2CCN(CCOc3ccccc3)CC2)c1=O` [Compound 1-13] here?
A: 126 nM

Q: And the IC50 (hα2C receptor; [2])?
A: 3.98 nM

Q: And the IC50 (5HT-Transporter)?
A: 5010 nM

Q: Which results are given for `CN(C)CCN(Cc1ccccc1)C(=O)Cn1ccnc(NC2CCN(CCOc3ccccc3)CC2)c1=O` [Compound 1-21]?
A: IC50 (hα2A receptor; [1]): 20 nM; IC50 (hα2C receptor; [2]): 0.794 nM; IC50 (5HT-Transporter): 1580 nM

Q: `CCOC(=O)CCCCn1ccnc(NC2CCN(CCOc3ccccc3)CC2)c1=O` [Compound 3-3] was tested. Which IC50 (hα2A receptor; [1]) did it give?
A: 251 nM

Q: And the IC50 (hα2C receptor; [2])?
A: 15.8 nM

Q: And the IC50 (5HT-Transporter)?
A: 3160 nM

Q: How did the IC50 (hα2A receptor; [1]) turn out when `C#CCN(C)C(=O)Cn1ccnc(NC2CCN(CCOc3ccccc3)CC2)c1=O` [Compound 1-7] was run?
A: 251 nM

Q: What about the IC50 (hα2C receptor; [2]) of the same molecule?
A: 12.6 nM

Q: What about the IC50 (5HT-Transporter) of the same molecule?
A: > 10000 nM

Q: What does the source list for `CC(=O)Cn1ccnc(NC2CCN(CCOc3ccccc3)CC2)c1=O` [Compound 5-4]?
A: IC50 (hα2A receptor; [1]): 126 nM; IC50 (hα2C receptor; [2]): 31.6 nM; IC50 (5HT-Transporter): > 10000 nM

Q: `C=CCn1ccnc(N2CCN(CCOc3ccc(F)cc3)CC2)c1=O` [Compound 13-5] was tested. Which IC50 (hα2A receptor; [1]) did it give?
A: 501 nM

Q: And the IC50 (hα2C receptor; [2])?
A: 501 nM

Q: And the IC50 (5HT-Transporter)?
A: > 10000 nM

Q: What does the source list for `O=c1c(N2CCN(CCOc3ccc(F)cc3)CC2)nccn1CCOc1ccccc1` [Compound 9-2]?
A: IC50 (hα2A receptor; [1]): 200 nM; IC50 (hα2C receptor; [2]): 251 nM; IC50 (5HT-Transporter): 2510 nM

Q: With `O=c1[nH]ccnc1NC1CCN(CCOc2ccccc2)CC1` [Compound 5-1] as the molecule, how does the IC50 (hα2A receptor; [1]) read?
A: 398 nM

Q: And the IC50 (hα2C receptor; [2])?
A: 39.8 nM

Q: What about the IC50 (5HT-Transporter) of the same molecule?
A: > 10000 nM

Q: Which IC50 (hα2A receptor; [1]) does the source give for `CC(C)(C)OC(=O)NCCCn1ccnc(NC2CCN(CCOc3ccccc3)CC2)c1=O` [Compound 1-20] here?
A: 126 nM

Q: What about the IC50 (hα2C receptor; [2]) of the same molecule?
A: 2.51 nM

Q: What about the IC50 (5HT-Transporter) of the same molecule?
A: 6310 nM

Q: Which IC50 (hα2A receptor) does the source give for `O=C(Cn1ccnc(NC2CCN(CCOc3ccccc3)CC2)c1=O)N1CCN(Cc2ccccc2)CC1` [Compound 2-12] here?
A: 200 nM

Q: And the IC50 (hα2C receptor)?
A: 2.51 nM

Q: What about the IC50 (5HT-Transporter) of the same molecule?
A: 6310 nM
